According to the OligoGym collection:
Values joined by “and” are separate entries in the source; they are usually repeats but may differ in a detail not shown here. Equal values may be shown once. After the bases stand the sugars from the 5' end (letter, count) and the backbone: PS all phosphorothioate, else s phosphorothioate and o phosphodiester by linkage. Methylation of C is not given here. e = 2'-O-(2-methoxyethyl) (MOE); k = constrained ethyl (cEt); d = 2'-deoxy (DNA)

Biological target: IRF4
Conditions: ASO

| Sequence | target mRNA inhibition (SK-MEL-28, 4 µM) [%] | target mRNA inhibition (MM.1R, 1 µM) | also measured |
| --- | --- | --- | --- |
| GACTCGGAGCTGAGGG (sugars k3 d10 k3, PS) | 23 | – | – |
| TGTGAACCTGCTGGGC (sugars k3 d10 k3, PS) | 2 | – | – |
| TCTACCTACTCCATCA (sugars k3 d10 k3, PS) | 47 | – | – |
| AGCTGGTAGGTCAAAC (sugars k3 d10 k3, PS) | -5 | – | – |
| TAGTATGAGAAACGGC (sugars kdddddddddkekeke, PS) | – | 32% | – |
| GAGGGTCAAAAAGATG (sugars k3 d10 k3, PS) | 33 | – | – |
| TCTGAGAGCAAATTGA (sugars k3 d10 k3, PS) | 29 | – | – |
| CAGAGTTGTTCCACCC (sugars k3 d10 k3, PS) | 62 | – | – |
| TTATATACTGGTTGGT (sugars k2 d9 e3 k2, PS) | – | 40% | – |
| GACAGTGACTTGCATC (sugars kkdddddddddkekek, PS) | – | 5% | – |
| CATTTTATGGACCACG (sugars k3 d10 k3, PS) | 62 | – | – |
| CTATAATTGGCACGAG (sugars k3 d10 k3, PS) | 63 | – | – |
| AGTGATAGGTATACTT (sugars k3 d10 k3, PS) | 39 | – | – |
| AAGACCCCGTATCCCC (sugars k3 d10 k3, PS) | 42 | – | – |
| ATGTAGTTGTGAACCT (sugars k3 d10 k3, PS) | 39 | – | – |
| ATGTGTATTACTCTTA (sugars k2 d9 e3 k2, PS) | – | 40% and 44% | – |
| CACGGACGGAGGCGGC (sugars k3 d10 k3, PS) | 18 | – | – |
| CTAGATAACATGAGAG (sugars k3 d10 k3, PS) | 53 | – | – |
| ACTAATACCTACCTGC (sugars k3 d10 k3, PS) | 48 | – | – |
| ACAGTGACTTGCATCC (sugars kdddddddddkekeke, PS) | – | 6% | – |
| GTAAACGCAAGTCTGA (sugars k3 d10 k3, PS) | – | 14% | – |
| TTATGTTAGCCAATTC (sugars k3 d10 k3, PS) | – | 9% and 22% | – |
| TAGTGTCGCCATGGCT (sugars k3 d10 k3, PS) | 69 | – | – |
| GGCCGATCATCAACTT (sugars k3 d10 k3, PS) | 7 | – | – |
| ACAAGTGCTAGGATTC (sugars k3 d10 k3, PS) | 67 | – | – |

| Sequence | target mRNA inhibition (SK-MEL-28, 4 µM) [%] | target mRNA inhibition (MM.1R, 1 µM) | also measured |
| --- | --- | --- | --- |
| CACTTTGTACGGGTCT (sugars k3 d10 k3, PS) | – | 11% | – |
| ACTGTTACCGATGCTT (sugars kdddddddddkekeke, PS) | – | -2% and 17% | – |
| TAGGTCATACCCTGGA (sugars k3 d10 k3, PS) | 72 | – | – |
| AAAGAGCGCATTTCAG (sugars k3 d10 k3, PS) | 6 | – | – |
| CCGCACGCAAGGCTCG (sugars k3 d10 k3, PS) | 16 | – | – |
| GTACATCCTGAAGCCA (sugars k3 d10 k3, PS) | 26 | – | – |
| ATTTCATAGCTAGTTC (sugars k3 d10 k3, PS) | 44 | – | – |
| CAGGAACTGACCTAAC (sugars k3 d10 k3, PS) | – | -7% | – |
| GGCAAATTAATGCTTC (sugars k3 d10 k3, PS) | 76 | – | target mRNA inhibition (MM.1R, 0.0625 µM): -5% and 17%; target mRNA inhibition (MM.1R, 0.074 µM): -9%; target mRNA inhibition (MM.1R, 0.222 µM): -33%; target mRNA inhibition (MM.1R, 0.25 µM): -11% and 5%; target mRNA inhibition (MM.1R, 0.666 µM): 7%; target mRNA inhibition (MM.1R, 2 µM): -5% |
| CCCCAGTCTACTGCTG (sugars k3 d10 k3, PS) | 47 | – | – |
| AAATGAGTCGGTCACT (sugars k3 d10 k3, PS) | 55 | – | – |
| ACACTGGATCTGAATT (sugars k3 d10 k3, PS) | 46 | – | – |
| ATGTATACCAACGACA (sugars k3 d10 k3, PS) | 63 | – | – |
| GGTATACTTAAGCAAG (sugars k3 d10 k3, PS) | 68 | – | – |
| CTCCAGGGAATGGATA (sugars k3 d10 k3, PS) | 27 | – | – |
| ACCCACGGACGGAGGC (sugars k3 d10 k3, PS) | -9 | – | – |
| AGAGACCATGTTCAGA (sugars k3 d10 k3, PS) | – | 12% | – |
| TGGTAGAATGTGATAT (sugars k3 d10 k3, PS) | 43 | – | – |
| GGGATTATATACTGGT (sugars kkdddddddddkekek, PS) | – | 40% | – |
| GCTCACTATTAAACAG (sugars k3 d10 k3, PS) | -12 | – | – |
| GCACAATTCTCTGAGA (sugars k3 d10 k3, PS) | 34 | – | – |
| GACACTTTTAGAGAGG (sugars kddddddddddkekek, PS) | – | 23% | – |
| GTCATTGCTCTTGTTC (sugars k3 d10 k3, PS) | – | 18% | – |
| ATGAGAAACGGCCTGG (sugars k3 d10 k3, PS) | 64 | – | – |
| GTGTCTAAAGTCCCAT (sugars kddddddddddkekek, PS) | – | 34% and 23% | – |

| Sequence | target mRNA inhibition (SK-MEL-28, 4 µM) [%] | target mRNA inhibition (MM.1R, 1 µM) | also measured |
| --- | --- | --- | --- |
| CAGTTGTAAATGAGTC (sugars kkkddddddddkekek, PS) | – | 76% | target mRNA inhibition (MM.1R, 0.074 µM): 26%; target mRNA inhibition (MM.1R, 0.222 µM): 52%; target mRNA inhibition (MM.1R, 0.666 µM): 75%; target mRNA inhibition (MM.1R, 2 µM): 88% |
| GACACTTTTAGAGAGG (sugars kkddddddddddkeke, PS) | – | 9% | – |
| CATAGGTCCTTCAGAT (sugars k3 d10 k3, PS) | – | -5% | – |
| TTGTACAGGACAGGTA (sugars k3 d10 k3, PS) | 28 | – | – |
| TGGGAATCCTTAATTA (sugars k3 d10 k3, PS) | 12 | – | – |
| GTCTAAACCAGCATAT (sugars k3 d10 k3, PS) | 19 | – | – |
| CTGTTACCGATGCTTC (sugars k3 d10 k3, PS) | – | 56% and 55% | target mRNA inhibition (MM.1R, 0.0625 µM): 18%; target mRNA inhibition (MM.1R, 0.25 µM): 36%; target mRNA inhibition (MM.1R, 4 µM): 82% |
| GAGCAAACCCTGCACT (sugars k3 d10 k3, PS) | -16 | – | – |
| ATGGCGCATAGGTCCT (sugars k3 d10 k3, PS) | – | -5% | – |
| ACCTTCGCGGCCGGCC (sugars k3 d10 k3, PS) | – | -42% | – |
| TAATATAGTTGTCTGG (sugars k3 d10 k3, PS) | 40 | – | – |
| AGCATTTTATCATCCG (sugars kdddddddddkekeke, PS) | – | 24% | – |
| TTAGGATAATATACCC (sugars k3 d10 k3, PS) | 52 | – | – |
| CCGTGATCTGAGACTA (sugars k3 d10 k3, PS) | – | 45% and 30% | target mRNA inhibition (MM.1R, 0.0625 µM): 0%; target mRNA inhibition (MM.1R, 0.25 µM): 13%; target mRNA inhibition (MM.1R, 4 µM): 71% |
| CAGAGCCAACTTATAG (sugars k3 d10 k3, PS) | – | 30% and 43% | – |
| ACTGGATTGATGTGAT (sugars k3 d10 k3, PS) | – | 25% and 39% | target mRNA inhibition (MM.1R, 0.0625 µM): 2% and 9%; target mRNA inhibition (MM.1R, 0.25 µM): 6% and 20%; target mRNA inhibition (MM.1R, 4 µM): 65% and 69% |
| CATTCCCTAGGTCATA (sugars k3 d10 k3, PS) | 54 | – | – |
| TGTTTTAAGAGGCGAC (sugars k3 d10 k3, PS) | – | 3% | – |
| AGCGAAGGGTAAGGCG (sugars k3 d10 k3, PS) | 14 | – | – |
| ATCTGAGACTACACCT (sugars k3 d10 k3, PS) | – | -8% | – |
| CTGCCACTGGTAACTG (sugars k3 d10 k3, PS) | – | 21% | – |
| ACGAAGGGCAGTGCCT (sugars k3 d10 k3, PS) | – | -5% | – |
| TCCTATGCTGAACCCC (sugars k3 d10 k3, PS) | 36 | – | – |
